Test: gradient 5% acetonitrile 3 min, to 50% in 2 min, to 85% in 15 min, held 3 min, 100 µL/min
Conditions: column: Zorbax Extend-C18 2.1 x 50 mm; eluents: water / acetonitrile, 0.1% formic acid
Summary of the method: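 The system's dead and dwell volumes were 40 μL and 900 μL, with a Zorbax Extend-C18 column (2.1 × 50 mm, 1.8 μm) run at 100 μL/min in water and acetonitrile containing 0.1% formic acid each. Pure standards were analyzed in mixtures of ~100 molecules by HPLC–quadrupole time-of-flight mass spectrometry in positive and negative ionization mode. Retention time was assigned from computationally picked, manually inspected adduct peaks.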

Compound | RP-LC retention time
CCc1ccc(Nc2nc(C(=O)NCCC3=CCCCC3)nc3ccccc23)cc1 | 1080 s
COc1ccc(C2(C(=O)N3CC(N(Cc4ccncc4)S(C)(=O)=O)C3)CC2)cc1 | 613 s
O=C(C1=NN(CCc2ccccc2)c2ccccc2S1(=O)=O)N1CCCC1 | 857 s
CCCc1noc(-c2ccc(-n3cnc(C(=O)NC4CCCCCC4)c3)nc2)n1 | 1070 s
Cc1noc([C@@H]2CC(F)(F)CN2C(=O)c2ccco2)n1 | 706 s
COc1ccc(OCc2noc(CNC(=O)CSc3nnnn3C)n2)cc1 | 658 s
O=C(Nc1nc2c(s1)CN(C(=O)Nc1ccc(Cl)c(Cl)c1)CC2)c1cnccn1 | 811 s
O=C(CN1C(=O)CCCc2cc(S(=O)(=O)N3CCCC3)ccc21)NC1CCCCCCC1 | 915 s
O=C(c1ccccn1)N1CC(n2cc(COc3ccncc3)nn2)C1 | 566 s
CCOCCCNC(=O)c1nc(Nc2ccc(F)cc2)c2ccccc2n1 | 746 s
CCN1CCN(CC2CCN(S(=O)(=O)Cc3c(F)cccc3Cl)CC2)CC1 | 611 s
O=C(Nc1ccc2c(c1)C(=O)NCC2)Nc1ccccc1C(F)(F)F | 694 s
COCCNC(=O)Cc1ccc(NC(=O)c2ccc(C(C)(C)C)cc2)cc1 | 790 s
CCc1nc2cc(N3CCC(C(=O)NCC4CCCO4)CC3)cnc2nc1CC (configuration not stated) | 670 s
CC(C)C(=O)Nc1ccc(C2(C(=O)NCc3ccco3)CCCCC2)cc1 | 889 s
CCN1C(=O)C(CC(=O)NC2CCCCC2)Sc2ncccc21 (configuration not stated) | 743 s
O=C(NCC1CN(CC2CC2)CC12CCCCC2)Nc1ccc(F)cc1 (configuration not stated) | 687 s
O=C(c1ccccc1OCC1CCCN(C2CCC2)C1)N1CCCC1 (configuration not stated) | 615 s
Cc1cccnc1NC(=O)c1csnn1 | 637 s
CCc1nc(NCc2ccncc2)ncc1C(=O)O | 555 s

Compound | RP-LC retention time
Oc1ccc2c3c1OC1C(O)CC[C@@]4(O)[C@@H](C2)N(CC2CCC2)CC[C@]314 (some centres not stated) | 619 s
CC(C)CN(C1CCN(C)CC1)C1CN(C(=O)c2cccs2)C1 | 586 s
O=C(Nc1cccc(Cl)c1)C1CCCN(S(=O)(=O)Cc2ccccc2)C1 (configuration not stated) | 1030 s
O=C(NCCc1ccsc1)C(=O)Nc1cccc(N2CCCCC2=O)c1 | 719 s
CCOc1ccc(NC(=O)Cc2cn(C)c3ncccc23)cc1 | 712 s
CC1=C(c2ccccc2)S(=O)(=O)N=C1N1CCC(NC(=O)COc2ccccc2)CC1 | 841 s
Cc1cc(C)cc(-n2ccnc2SCC(=O)Nc2cc(C)on2)c1 | 755 s
OC[C@@H]1CNC[C@H]1C1CCN(Cc2ccc(OC(F)(F)F)cc2)CC1 | 591 s
CCCCC1CCC(C(=O)Nc2nc(-c3ccc4c(c3)NC(=O)CO4)cs2)CC1 (configuration not stated) | 934 s
Clc1cccc(-c2ccc(CNCCCn3ccnc3)o2)c1 | 588 s
CSc1ccc(CNC(=O)Cn2ccc3ccc(N4CCOCC4)nc32)cc1 | 958 s
CCCS(=O)(=O)N1CC(=O)N(c2cc(Cl)ccc2C)C(C)(C(=O)NC2CCCCC2)C1 (configuration not stated) | 982 s
O=C(COc1ccc(Cl)cc1)N1C[C@H]2C[C@H](C1)[C@H]1CCCC(=O)N1C2 | 714 s
CCOC(=O)[C@H](C)C[C@@H](Cc1ccc(-c2ccccc2)cc1)NC(=O)CCC(=O)O | 1010 s
COc1ccc(CCS(=O)(=O)Nc2ccc(CC(=O)NCc3cccs3)cc2)cc1 | 782 s
CCC(C)C(NC(=O)c1ccc(F)cc1)C(=O)Nc1nc2ccccc2[nH]1 (configuration not stated) | 746 s
O=S(=O)(NCC(O)c1ccc(C(F)(F)F)cc1)c1ccc2c(c1)CCCC2 (configuration not stated) | 984 s
CC(C)NC(=O)c1ccc(OCC2CCN(C(=O)c3ccccc3)CC2)cc1 | 828 s
O=C(NCc1ccccc1C(F)(F)F)C1CCN(c2cncnc2N2CCOCC2)CC1 | 644 s
CCCN(CCC)[C@@H]1CCc2ccc(O)cc2C1 | 671 s

Second part, the compound after the results:

RP-LC retention time | Compound
785 s | Cc1ccc(C)c(NC(=O)Cn2nc3cc(C)nc(N4CCCC4)n3c2=O)c1
922 s | CC(C)NC(=O)c1ccc(OCC2CCN(C(=O)c3ccc(F)c(Cl)c3)CC2)cc1
861 s | Cc1cc(C)cc(NC(=O)N2CCC(n3cnc4ccc(F)cc4c3=O)CC2)c1
768 s | CC(C)N1CCn2c(nc3cc(C(=O)NCc4ccccc4C(F)(F)F)ccc32)C1=O
986 s | CCOc1ccc(-c2nc(C#N)c(N3CCN(C(=O)c4ccccc4Cl)CC3)o2)cc1
787 s | CCN1c2ccccc2C(=O)NC12CCN(C(=O)Nc1cc(Cl)ccc1OC)CC2
994 s | Cc1ccc(S(=O)(=O)Nc2ccc3c(c2)CCC(=O)N3CC(C)C)cc1Cl
800 s | Cc1ccc(CNC(=O)C2(C)Cn3nc(C(=O)NC4CCCCC4)cc3C(=O)N2C)cc1 (configuration not stated)
746 s | Cc1ccn2c(Nc3ccccc3C)c(-c3ccc(N4CCOCC4)cc3)nc2c1
745 s | CCCn1cc(C(=O)NCCN(C)C)c(S(=O)(=O)N2CCN(c3cccc(Cl)c3)CC2)n1
922 s | COc1ccc(-c2nn(CCCC(=O)N3CCN(c4ccccc4)CC3)c(=O)c3noc(C)c23)cc1
730 s | COC(=O)C1=CN(c2ccc(N(C)C)cc2)c2ccc(F)cc2S1(=O)=O
968 s | CCc1ccc(NC(=O)Cn2nc3cc(C)nc(N4CCCC4)n3c2=O)cc1
1260 s | CCOC(=O)C1CCC(CNC(=O)Nc2ccc(-c3nc(-c4cc(C)ccc4C)co3)cc2)CC1 (configuration not stated)
750 s | CN1c2ccc(F)cc2C(=O)NC12CCN(C(=O)NCc1ccc(F)cc1)CC2
903 s | O=C(Cn1c(=O)c2cccn2c2ccc(F)cc21)NCc1cccc(Br)c1
638 s | COc1ccc(CNC(=O)CN2CCc3[nH]c4c(C)c(Cl)ccc4c(=O)c3C2)cc1
990 s | COc1ccc(-c2nnc(Cc3nc(-c4ccc(Cl)cc4)no3)o2)cc1OC
891 s | COc1cccc(CNC(=O)N2CCc3nc(-c4ccccc4)sc3C2)c1
691 s | CC1CCN(S(=O)(=O)c2ccc3nc(N4CCN(c5ccccn5)CC4)ccc3c2)CC1
903 s | Cc1ccc(N2CCC(NC(=O)Nc3ccc(F)cc3F)C2=O)cc1C (configuration not stated)
571 s | CCCN1CCN(CCNC(=O)CCc2cc3ccc(C)cc3[nH]c2=O)CC1
990 s | Cc1c(-c2noc(-c3ccc4c(c3)OCO4)n2)nnn1Cc1cccc(F)c1
815 s | Cc1ccc(C2Cn3nnc(C(=O)N4CCN(C(=O)c5ccoc5)CC4)c3CO2)cc1 (configuration not stated)

RP-LC retention time | Compound
642 s | COc1cc(NC(=O)N2CCCC(CN3CCc4ccccc4C3)C2)cc(OC)c1OC (configuration not stated)
710 s | CC(C)c1ccc(-c2ccnc3c(C(=O)N4CCN(c5ccccn5)CC4)cnn23)cc1
917 s | COc1ccc(OCc2nnc3sc(-c4cc(CC(C)C)[nH]n4)nn23)cc1
930 s | COc1cccc(N2CCN(Cc3nc(-c4ccc(N5CCCCC5)nc4)no3)CC2)c1
1170 s | Cc1ccc(-c2cc3c(=O)n(Cc4nc(-c5ccc6c(c5)OCO6)no4)ncn3n2)c(C)c1
952 s | Cc1ccc(Cn2c(N3CCCC(C(=O)NCc4ccc(C)o4)C3)nc3ccsc3c2=O)cc1 (configuration not stated)
1010 s | CCOC(=O)c1cc(S(=O)(=O)N2CCCC2C(=O)Nc2cc(Cl)c(OC)cc2OC)cn1C (configuration not stated)
743 s | CCn1nc(C)c(CCN(C)C(=O)c2cc3c(s2)N(C)CCCC3)c1C
797 s | COc1ccc2c(c1)C(O)(CC(=O)c1ccc(-c3ccc(Cl)cc3)o1)C(=O)N2 (configuration not stated)
768 s | Cc1nc(-c2cccc(NC(=O)CCCn3cnc(-c4ccc(F)cc4)cc3=O)c2)cs1
836 s | O=C(Cn1cc(C(=O)c2ccccc2)c(=O)c2cc(F)ccc21)Nc1ccc2c(c1)OCO2
620 s | COc1cc(C(=O)Nc2noc3ncccc23)cc(OC)c1OC
1090 s | Cc1cc(C)c(S(=O)(=O)N2CCc3c(c(-c4nnc(-c5ccc(F)cc5)o4)nn3C)C2)cc1C
1030 s | CCc1nn2c(CNC(=O)c3cc(C)cc(C)c3)c(-c3ccccc3)nc2s1
934 s | COCC(=O)N1CC2CN(S(=O)(=O)c3ccc(OC)cc3)CC(C1)O2
778 s | O=C(NCCn1c(=O)n(Cc2ccc(F)cc2)c2cccnc21)c1ccc2c(c1)OCO2
658 s | CCc1nccn1Cc1noc(-c2cccc(C)c2)n1
566 s | CCc1cc(N2CCN(C(=O)COc3ccc(F)cc3)CC2)nc2nncn12
971 s | CN1C(=O)C2CCCCN2c2ccc(C(=O)NCCc3ccc(Cl)cc3)cc21 (configuration not stated)
706 s | COc1cc(Cl)c(C)cc1Nc1c(C(=O)N2CCC(C)CC2)cnc2nc(C)ccc12
1300 s | CCOc1nc2ccccc2nc1N1CCCC(C(=O)Nc2ccc(Cl)cc2C)C1 (configuration not stated)
622 s | CC(=O)N1CCN(C(=O)C2CCCN(c3ccc(-c4ccc(C)c(C)c4)nn3)C2)CC1 (configuration not stated)
800 s | COc1ccc(NC(=O)NC2CCN(c3ccc(C)c(C)c3)C2=O)cc1F (configuration not stated)

Reference: the METLIN SMRT retention time set (Domingo-Almenara et al. 2019)
